Patent publication US8372621B2, “Methods and materials for the production of shikimic acid” (priority 2003, dated 2013)

Tests used:
[1] = system: O=C[C@H](O)[C@H](O)COP(=O)(O)O; experiment: DAHP formation kinetics, evolved variant ST04-5 (Table 10); type: biochemical, Salmonella typhimurium; settings: other: purified as GST fusion protein; pH 7.5
Description: (§1) Enzyme activity is measured by following the formation of 3-dehydroshikimic acid (DHS) over time when DHQ synthase (3-dehydroquinate synthase, E.C. 4.2.3.4) and DHQ dehydratase (E.C. 4.2.1.10) are utilized as coupling enzymes. DHQ synthase is prepared as described in Frost, J. W. et al., Biochemistry, 1984, 23, 4470-75; DHQ dehydratase is purified from E. coli AB2848/pKD201 The reaction (1 mL) contains 50 mM morpholinepropanesulfonic acid (MOPS) buffer (pH 7.5), 1 mM D-erythrose 4-phosphate, 1 mM pyruvate, 50 μM CoCl2, 10 μM NAD, 1 U of DHQ synthase, 1 U of DHQ dehydratase and cellular lysate. […] One unit of evolved enzyme activity is defined by the formation of one μmol of DHS per minute.

[2] = system: chimeric KDPGal aldolase (DgoA) variant NR8.165-6 (family shuffling of EC03-1, KP03-3 and ST04-5), GST fusion protein; experiment: DAHP formation kinetics, family-shuffled variant NR8.165-6 (Table 10); type: biochemical, chimera of E. coli, K. pneumoniae and S. typhimurium
Description: (§2) Enzyme activity is measured by following the formation of 3-dehydroshikimic acid (DHS) over time when DHQ synthase (3-dehydroquinate synthase, E.C. 4.2.3.4) and DHQ dehydratase (E.C. 4.2.1.10) are utilized as coupling enzymes. DHQ synthase is prepared as described in Frost, J. W. et al., Biochemistry, 1984, 23, 4470-75; DHQ dehydratase is purified from E. coli AB2848/pKD201 The reaction (1 mL) contains 50 mM morpholinepropanesulfonic acid (MOPS) buffer (pH 7.5), 1 mM D-erythrose 4-phosphate, 1 mM pyruvate, 50 μM CoCl2, 10 μM NAD, 1 U of DHQ synthase, 1 U of DHQ dehydratase and cellular lysate. The reaction is initiated by addition of diluted cellular lysate to the assay solution, and the absorbance at 234 nm monitored continuously for 5 min. One unit of evolved enzyme activity is defined by the formation of one μmol of DHS per minute.
(§3) The the dgoA mutants, EC03-1, KP03-3 and ST04-5, were subjected to DNA family shuffling using the single-stranded DNA shuffling method developed by Zhao and coworkers: Zha, W; Zhu, T; Zhao, H., Methods Mol. Biol. 2003, 231, 91-97. […] The dgoA gene hybrids from the five largest colonies that appeared after 2.5 days were sequenced and their encoding KDPGal aldolase activities toward DAHP formation were determined as shown in Table 9.

[3] = system: chimeric KDPGal aldolase (DgoA) variant NR8.165-4 (family shuffling of EC03-1, KP03-3 and ST04-5), GST fusion protein; experiment: DAHP formation kinetics, family-shuffled variant NR8.165-4 (Table 10); type: biochemical, chimera of E. coli, K. pneumoniae and S. typhimurium
Description: as §2, §3

[4] = system: E. coli native DAHP synthase AroG; settings: Sheflyan et al. 1998, cited from earlier work
[5] = molecular target: S. typhimurium KDPGal aldolase (DgoA) variant ST04-5 (D20E, V28M, S42T, I89T, P150L, D178G; parent SEQ ID NO:6), GST fusion protein (Salmonella enterica, UniProt A0A0H3NU26, D178G/D20E/I89T/P150L/S42T/V28M); experiment: DAHP formation kinetics, evolved variant ST04-5 (Table 10); type: biochemical; settings: purified as GST fusion protein
Description: as §1

[6] = system: chimeric KDPGal aldolase (DgoA) variant NR8.165-2 (family shuffling of EC03-1, KP03-3 and ST04-5), GST fusion protein; experiment: DAHP formation kinetics, family-shuffled variant NR8.165-2 (Table 10); type: biochemical, chimera of E. coli, K. pneumoniae and S. typhimurium
Description: as §2, §3

[7] = system: E. coli native DAHP synthase AroH; settings: Akowski & Bauerle 1997, cited from earlier work
[8] = system: E. coli native DAHP synthase AroF; settings: Ramilo & Evans 1997, cited from earlier work
[9] = system: O=C[C@H](O)[C@H](O)COP(=O)(O)O; experiment: DAHP formation kinetics, wild-type K. pneumoniae KDPGal aldolase (Table 10); type: biochemical, Klebsiella pneumoniae; settings: other: purified as GST fusion protein; pH 7.5
Description: as §2

[10] = system: O=C[C@H](O)[C@H](O)COP(=O)(O)O; experiment: DAHP formation kinetics, wild-type S. typhimurium KDPGal aldolase (Table 10); type: biochemical, Salmonella typhimurium; settings: other: purified as GST fusion protein; pH 7.5
Description: as §2

[11] = substrate: O=C[C@H](O)[C@H](O)COP(=O)(O)O; experiment: DAHP formation kinetics, evolved variant EC03-1 (Table 10); type: biochemical, Escherichia coli; settings: other: purified as GST fusion protein; pH 7.5
Description: as §1, with “synthase,” for “synthase, 1 U of DHQ dehydratase and cellular lysate.”

[12] = substrate: O=C[C@H](O)[C@H](O)COP(=O)(O)O; experiment: DAHP formation kinetics, wild-type E. coli KDPGal aldolase (Table 10); type: biochemical, Escherichia coli; settings: other: purified as GST fusion protein; pH 7.5
Description: as §1, with “synthase,” for “synthase, 1 U of DHQ dehydratase and cellular lysate.”

[13] = purified as GST fusion protein, read-out: Km (E4P)
[14] = relative to parent enzymes EC03-1 and ST04-5
[15] = compared with the wild-type E. coli KDPGal aldolase
[16] = read-out: Km for D-erythrose 4-phosphate

Chain of S. typhimurium KDPGal aldolase (DgoA) variant ST04-5 (D20E, V28M, S42T, I89T, P150L, D178G; parent SEQ ID NO:6), GST fusion protein (A0A0H3NU26 whole entry D178G/D20E/I89T/P150L/S42T/V28M, the tested form may be a part): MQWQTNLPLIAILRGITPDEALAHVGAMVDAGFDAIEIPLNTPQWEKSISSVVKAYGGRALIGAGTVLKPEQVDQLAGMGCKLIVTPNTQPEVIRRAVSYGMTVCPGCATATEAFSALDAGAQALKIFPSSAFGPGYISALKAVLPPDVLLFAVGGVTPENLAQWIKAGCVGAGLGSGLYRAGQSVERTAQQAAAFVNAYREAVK

S. typhimurium KDPGal aldolase (DgoA) variant ST04-5 (D20E, V28M, S42T, I89T, P150L, D178G; parent SEQ ID NO:6), GST fusion protein (Salmonella enterica subsp. enterica serovar Typhimurium str. SL1344; D178G/D20E/I89T/P150L/S42T/V28M)
Km [1]: 119 µM

O=C[C@H](O)[C@H](O)COP(=O)(O)O [E4P, D-erythrose 4-phosphate]
kcat ([2]; purified as GST fusion protein): 0.504 s⁻¹
kcat/Km ([2]; purified as GST fusion protein): 6300 M⁻¹ s⁻¹
Km [2, 13]: 80 µM
kcat/Km relative to parent enzymes [2, 14]: decrease in kcat/Km values relative to their parent enzymes
increase in kcat [3, 15]: 5 fold
increase in kcat/Km [3, 15]: 25 fold
reduction in Km for D-erythrose 4-phosphate [3, 15]: 5 fold
kcat ([3]; purified as GST fusion protein): 4.76 s⁻¹
kcat/Km ([3]; purified as GST fusion protein): 41400 M⁻¹ s⁻¹
Km [3, 13]: 115 µM
kcat [4]: 10.3 s⁻¹
Km [4, 16]: 141 µM
kcat [5]: 3.24 s⁻¹
kcat/Km [5]: 27200 M⁻¹ s⁻¹
kcat ([6]; purified as GST fusion protein): 2.51 s⁻¹
kcat/Km ([6]; purified as GST fusion protein): 16000 M⁻¹ s⁻¹
Km [6, 13]: 157 µM
kcat/Km relative to parent enzymes [6, 14]: decrease in kcat/Km values relative to their parent enzymes
kcat [7]: 20.6 s⁻¹
Km [7, 16]: 35 µM
kcat [8]: 29.5 s⁻¹
Km [8, 16]: 81.4 µM

Klebsiella pneumoniae KDPGal aldolase (DgoA), wild type, SEQ ID NO:4, GST fusion protein (Klebsiella pneumoniae subsp. pneumoniae MGH 78578)
Km [9]: 1507 µM

Salmonella typhimurium KDPGal aldolase (DgoA), wild type, SEQ ID NO:6, GST fusion protein (Salmonella enterica subsp. enterica serovar Typhimurium str. SL1344)
Km [10]: 685 µM

B1: E. coli KDPGal aldolase (DgoA) variant EC03-1 (F33I, D58N, Q72H, A75V, V85A, V154F; parent SEQ ID NO:2), GST fusion protein (Escherichia coli K-12; … (protein)
chain: MQWQTKLPLIAILRGITPDEALAHVGAVIDAGIDAVEIPLNSPQWEQSIPAIVDAYGNKALIGAGTVLKPEHVDVLARMGCQLIATPNIHSEVIRRAVGYGMTVCPGCATATEAFTALEAGAQALKIFPSSAFGPQYIKALKAVLPSDIAVFAFGGVTPENLAQWIDAGCAGAGLGSDLYRAGQSVERTAQQAAAFVKAYREAVQ
Km [11]: 124 µM
kcat [11]: 2.49 s⁻¹
kcat/Km [11]: 20100 M⁻¹ s⁻¹

B2: Escherichia coli KDPGal aldolase (DgoA), wild type, SEQ ID NO:2, GST fusion protein (Escherichia coli K-12) (protein)
chain: MQWQTKLPLIAILRGITPDEALAHVGAVIDAGFDAVEIPLNSPQWEQSIPAIVDAYGDKALIGAGTVLKPEQVDALARMGCQLIVTPNIHSEVIRRAVGYGMTVCPGCATATEAFTALEAGAQALKIFPSSAFGPQYIKALKAVLPSDIAVFAVGGVTPENLAQWIDAGCAGAGLGSDLYRAGQSVERTAQQAAAFVKAYREAVQ
Km [12]: 571 µM
kcat [12]: 0.94 s⁻¹
kcat/Km [12]: 1650 M⁻¹ s⁻¹
